From patent publication US11607404B2, “Combinations of RAD51 and PARP inhibitors” (Cyteir Therapeutics, Inc., priority 2019, dated 2023)

Experiments:
[1] = test system: ARPE19/HPV16, KYSE-70 and Daudi cell lines; assay: Combination matrix study Compound 67A + PARP inhibitors, cell lines of varying AID expression (Bliss, Loewe); type: cell-based; settings: non-tumor derived cell line ARPE19/HPV16; in combination with Compound 67A
Method: The combination matrix was tested in 3 cell lines of varying AID expression: ARPE19/HPV16 (HPV immortalized normal epithelial cell line), KYSE-70 (head and neck cancer cell line) and Daudi (Burkitt's Lymphoma cell line). […] Both the Loewe Additivity model and the Bliss Independence model were used to determine drug interaction (synergistic, independent, or antagonistic).
Bliss Independence model was used and calculated in Excel. The model assumes that the drugs act with probabilistic independence. Bliss: yexp=yA+yB−yAyB
This expected value was generated by examining single-agent effects and then tested against the observed value using a two-tailed Welch's T-Test. For visualization purposes, the values generated from this test were transformed to a “Synergy Score” by doing the computation:
Loewe Additivity model was used and calculated by the “Synergyfinder” R package.
The graphs generated describe the difference between the expected value generated by the additivity model and the observed value generated by the experiment. If the effect determined by the additivity model<the effect observed the space is colored red, if the effect determined by the additivity mode>the effect observed then the space is colored green. The saturation of the color is proportional to the magnitude of the difference between these two values.

HBCx16 model = assay: Tumor growth inhibition, subcutaneous engrafted tumor model; type: in vivo, mice; settings: HRD Positive, RAD51 High, BRCA1 Meth, PALB2 WT, 67A 80 mg/kg QD, olaparib 100 mg/kg QD, combo both
Method: (§1) Immunodeficient mice were subcutaneously engrafted in the rear flank with the tumor cells. The tumors were allowed to grow to a size of about 100 to about 200 mm^3 prior to being randomized and grouped into treatment arms. For models […] through […] the four treatment arms were vehicle, Compound 67A at 80 mg/kg QD, olaparib at 100 mg/kg QD, and Compound 67A+Olaparib at 80 mg/kg QD and 100 mg/kg QD, respectively. For models J000101173 through TM00091 the treatment arms were vehicle, Compound 67A at 40 mg/kg QD, olaparib at 50 mg/kg QD, and Compound 67A+Olaparib at 40 mg/kg QD and 50 mg/kg QD, respectively. The tumors were measured either once weekly or twice weekly.
(§2) Percent Tumor Growth Inhibition (% TGI) was calculated by taking the mean volume of each of the treatment arms, and comparing the treatment arms to the vehicle arms using the following equation

HBCx17 model = assay: as above; type: in vivo, mice; settings: HRD Positive, RAD51 High, BRCA2 Mut, PALB2 WT, 67A 80 mg/kg QD, olaparib 100 mg/kg QD, combo both
Method: as §1, §2

T298 model = assay: as above; type: in vivo, mice; settings: HRD Positive, RAD51 Low, BRCA WT, PALB2 Mut, 67A 80 mg/kg QD, olaparib 100 mg/kg QD, combo both
Method: as §1, §2

HBCx11 model = assay: as above; type: in vivo, mice; settings: HRD Positive, RAD51 High, BRCA1 Mut, PALB2 WT, 67A 80 mg/kg QD, olaparib 100 mg/kg QD, combo both
Method: as §1, §2

TM01079 model = assay: as above; type: in vivo, mice; settings: HRD Positive, RAD51 Low, BRCA1 Meth, PALB2 WT, 67A 40 mg/kg QD, olaparib 50 mg/kg QD, combo both
Method: as §1, §2

HBCx27 model = assay: as above; type: in vivo, mice; settings: HRD Negative, RAD51 High, BRCA WT, PALB2 WT, 67A 80 mg/kg QD, olaparib 100 mg/kg QD, combo both
Method: as §1, §2

TM00091 model = assay: as above; type: in vivo, mice; settings: HRD Positive, RAD51 High, BRCA1 Mut, PALB2 WT, 67A 40 mg/kg QD, olaparib 50 mg/kg QD, combo both
Method: as §1, §2

TM00096 model = assay: as above; type: in vivo, mice; settings: HRD Positive, RAD51 Low, BRCA WT, PALB2 WT, 67A 40 mg/kg QD, olaparib 50 mg/kg QD, combo both
Method: as §1, §2

HBCx12B model = assay: as above; type: in vivo, mice; settings: HRD Positive, RAD51 High, BRCA1 Meth, PALB2 WT, 67A 80 mg/kg QD, olaparib 100 mg/kg QD, combo both
Method: as §1, §2

HBCx23 model = assay: as above; type: in vivo, mice; settings: HRD Positive, RAD51 High, BRCA1 Meth, PALB2 WT, 67A 80 mg/kg QD, olaparib 100 mg/kg QD, combo both
Method: as §1, §2

J000101173 model = assay: as above; type: in vivo, mice; settings: HRD Positive, RAD51 Low, BRCA WT, PALB2 WT, 67A 40 mg/kg QD, olaparib 50 mg/kg QD, combo both
Method: as §1, §2

TM00090 model = assay: as above; type: in vivo, mice; settings: HRD Positive, RAD51 Low, BRCA1 Meth, BRCA2 Mut, PALB2 WT, 67A 40 mg/kg QD, olaparib 50 mg/kg QD, combo both
Method: as §1, §2

J000100675 model = assay: as above; type: in vivo, mice; settings: HRD Negative, RAD51 Low, BRCA WT, PALB2 WT, 67A 40 mg/kg QD, olaparib 50 mg/kg QD, combo both
Method: as §1, §2

HBCx1 model = assay: as above; type: in vivo, mice; settings: HRD Positive, RAD51 High, BRCA WT, PALB2 WT, 67A 80 mg/kg QD, olaparib 100 mg/kg QD, combo both
Method: as §1, §2

TM000113 model = assay: as above; type: in vivo, mice; settings: HRD Negative, RAD51 Low, BRCA WT, PALB2 WT, 67A 40 mg/kg QD, olaparib 50 mg/kg QD, combo both
Method: as §1, §2

**Q.** With `O=C(c1cc(Cc2n[nH]c(=O)c3ccccc23)ccc1F)N1CCN(C(=O)C2CC2)CC1` [Olaparib, olaparib, reference compound] as the compound, how does the “Drug interaction with Compound 67A (synergy)” value [1] read?
**A.** synergy observed

**Q.** What about the “% TGI” value (HBCx16 model) of the same compound?
**A.** −25.61%

**Q.** And the “% TGI” value (HBCx17 model)?
**A.** 122%

**Q.** What about the “% TGI” value (T298 model) of the same compound?
**A.** 107%

**Q.** What about the “% TGI” value (HBCx11 model) of the same compound?
**A.** 60.95%

**Q.** And the “% TGI” value (TM01079 model)?
**A.** 68.7%

**Q.** And the “% TGI” value (HBCx27 model)?
**A.** 7.819%

**Q.** And the “% TGI” value (TM00091 model)?
**A.** 21.26%

**Q.** And the “% TGI” value (TM00096 model)?
**A.** −1.94%

**Q.** What about the “% TGI” value (HBCx12B model) of the same compound?
**A.** 42.56%

**Q.** And the “% TGI” value (HBCx23 model)?
**A.** 84.48%

**Q.** And the “% TGI” value (J000101173 model)?
**A.** 4.71%

**Q.** And the “% TGI” value (TM00090 model)?
**A.** 86.05%

**Q.** What about the “% TGI” value (J000100675 model) of the same compound?
**A.** −17%

**Q.** What about the “% TGI” value (HBCx1 model) of the same compound?
**A.** 51.07%

**Q.** And the “% TGI” value (TM000113 model)?
**A.** 2.37%
